# Test results published in patent US7365223B2, “Method for selective targeting of apoptotic cells and small molecule ligands used thereof” (NST NeuroSurvival Technologies Ltd, priority 2003, dated 2008).
# Assays:
# [1] = tested on: Jurkat cells undergoing apoptosis induced by anti-Fas Ab; assay: Selective binding to apoptotic Jurkat cells; flow-cytometric (FACS) analysis; format: cell-based, human; conditions: 20 minutes
# Experimental: Cultured Jurkat cells (human adult T cell leukemia cells) were grown in suspension in RPMI medium (Beit-Haemek, Israel), supplemented with 10% of fetal calf serum (FCS), 4 mM of L-glutamine, 1 mM of sodium pyruvate, […] and antibiotics (100 units/ml penicillin; 100 μg/ml streptomycin and 12.5 units/ml of nystatin). Prior to induction of apoptosis, medium was replaced with HBS buffer (10 mM HEPES; 140 mM NaCl, 1 mM CaCl). Apoptosis was then triggered by treatment with anti-Fas Ab (0.1 μg/ml; 3 hrs). As a result, a marked percentage of the cells became apoptotic, and is regarded as newly formed early apoptotic cells. Non-treated cells served as control. Both control cells and apoptotic cells were then incubated for 20 minutes with 100 μM of NST705. […] The analysis shown in FIG. 1 describes the uptake of NST705 compound into the population of apoptotic cells in control and anti-fas treated cultures.
# (§1) In the dot plot shown in FIG. 1A and FIG. 1B, the left lower quadrant represents the healthy, non-stained fraction of cells. The right lower quadrant represents the newly formed population of cells in the early stages of apoptosis. These cells still maintain membrane integrity and thus exclude PI. Cells binding both NST705 and PI, i.e., cells in the late stages of apoptosis are represented in the right upper quadrant.
# (§2) Cultured Jurkat cells (human adult T cell leukemia cells) were grown in suspension in RPMI medium (Beit-Haemek, Israel), supplemented with 10% of fetal calf serum (FCS), 2 mM of L-glutamine, 1 mM of sodium pyruvate, […] and antibiotics (100 units/ml penicillin; 100 μg/ml streptomycin and 12.5 units/ml of nystatin). Prior to induction of apoptosis, medium was replaced with HBS buffer (10 mM HEPES; 140 mM NaCl, 1 mM CaCl). Apoptosis was then triggered by treatment with anti-Fas Ab (0.1 μg/ml; 3 hrs). As a result, a marked percentage of the cells became apoptotic. Non-treated cells served as control. Both control cells and apoptotic cells were then incubated for 20 minutes with 100 μM of NST703. Subsequently, cells were co-stained with propidium iodide (P). Binding of NST703 to the control and apoptotic cells was determined by flow cytometric (FACS) analysis using Becton-Dickinson cell sorter and CellQuest software (excitation was at 356 nm and emission was measured at 530 nm).
# as §1, with “2A” for “1A”, “2B,” for “FIG. 1B,”, “NST703” for “NST705”
# as §2, with “penicilin;” for “penicillin;”, “DC.” for “NST703.”, “(PI).” for “(P).”, “DC” for “NST703”
# FIG. 4A and FIG. 4B are each a representative FACS dot plot, showing that activation of apoptosis leads to a marked uptake of DC by cells in the early stages of apoptosis (FIG. 4B), as compared to control cells (FIG. 4A). […]
# [2] = tested on: chemotherapy-induced apoptotic cells of lymphoma tumors; assay: In-vivo targeting to chemotherapy-induced apoptotic cells of lymphoma tumors; fluorescent microscopy; conditions: DBA/2 mice, Taxol 20 mg/Kg; 1.4 mg/mouse injected 24 h later, 2 hours
# Experimental: Lymphoma tumors were induced in 8 weeks old male DBA/2 mice (Harlan laboratories, UK) by subcutaneous injection of lymphoma cells. The cells, from a chemically-induced LY-R clone were obtained from ATCC(CRL-1722), and maintained by subsequent passages in mice. For induction of tumors, 5×10^5 cells in a volume of 100 μl were injected into the thigh region in mice. […] Twenty-four hours later, NST705 was injected systemically at a dose of 1.4 mg/mouse. Two hours later, mice were sacrificed and tumors were frozen in liquid nitrogen. Cryosections were then prepared and serial slides were subjected to either hematoxylin & eosin (H&E) staining or fluorescent microscopy evaluation (excitation wavelength of 360 nm, emission at 530 nm), using an Olympus fluorescent microscope (model IX70).
# [3] = tested on: apoptotic cells in B16-F10 murine melanoma tumor; assay: Targeting in-vivo to apoptotic cells in tumor, murine melanoma; fluorescent microscopy; parameters: species or system mice; conditions: 2 mg/mouse intravenously, 2 hours
# Experimental: Tumors, and especially aggressive malignancies such as melanoma are characterized, in addition to the abnormal tissue proliferation, also by marked apoptosis of tumor cells. The performance of DC in selective targeting of these apoptotic cells within the tumor was therefore examined Mice (c57/black; 8 weeks old male mice) were injected subcutaneously bilaterally, in the flank, with murine melanoma-derived B16-F10 cells (ATCC CRL-6475; 10^5 cells/mice in a volume of 100 μl). Prior to injection, the cell line was maintained in culture in Dulbecco's modified Eagle's medium (DMEM), supplemented with 4 mM of L-glutamine; 100 units/ml of penicillin; 100 μg/ml of streptomycin; 12.5 units/ml of nystatin and 10% of fetal calf serum (FCS). Tumors were allowed to grow for 14 days, by which they reached a diameter of 5-7 mm.
# (§3) The DC compound (2 mg/mouse in NaPpi buffer, pH. 7.40) was injected intravenously. Two hours later, the mice were scarified and the tumors, as well as other organs were taken, and immediately frozen in liquid nitrogen. Frozen sections were then prepared from each of the organs. Uptake of DC by the tumors or other organs was assessed by fluorescent microscopy.
# The performance of NST730 in selective targeting to apoptotic cells within a tumor examined as described in Example 7. Mice (c57/black; 8 weeks old male mice) were injected subcutaneously bilaterally, in the flank, with murine melanoma-derived B16-F10 cells (ATCC CRL-6475; 10^5 cells/mice in a volume of 100 μl). Tumors were allowed to grow for 14 days, by which they reached a diameter of 5-7 mm.
# as §3, with “The NST730 compound (2” for “The DC compound (2”, “Uptake of NST730 by the” for “Uptake of DC by the”, “tumors or by other organs” for “tumors or other organs”
# [4] = tested on: neuronal cell death following MCA occlusion; assay: Detection of neuronal cell death following middle cerebral artery (MCA) occlusion; format: in vivo; conditions: Balb/C mice; 70 mg/kg intravenously 22 hours after MCA cauterization, 2 hours
# Experimental: (§4) Cerebral ischemia was induced in Balb/C mice (10-12 weeks) by cauterization of the middle cerebral artery. Mice were anesthetized, and the temporal bone was exposed. Scraping off the bone up to a minimal hole allowed exposure of the artery subjecting it to cauterization. 22 hours later, NST732 (70 mg/kg) was injected intravenously. Two hours later (at 24 h from induction of the injury), mice were anesthetized and sacrificed, and brains were removed into liquid nitrogen for histopathological analysis of the frozen sections. Four μm thick sections were prepared for fluorescent microscopic analysis to follow the cells stained positively with NST732.
# as §4, with “cauterization,” for “cauterization.”, “NST730” for “NST732”, “sections, as described in Example 11.” for “sections. Four μm thick sections were prepared for fluorescent microscopic analysis to follow the cells stained positively with NST732.”
# [5] = tested on: murine lymphoma cells undergoing cell death induced by irradiation; assay: Detection of cell death induced by irradiation in vivo; murine lymphoma; conditions: irradiated DBA mice (3 fractions of 6 Gray); 70 mg/kg intravenously, 2 hours
# Experimental: DBA mice (5-6 weeks old males, Jackson laboratories) were injected subcutaneous with 10^6 lyS cells in 50 μl saline and were examined daily for tumor formation. At days 8, 9 and 10 mice were placed in a Perspex box and irradiated with 6MV x-rays apparatus (Linac) in fractions of 6 Gray each. Each mouse received a dose of about 1.0 centiGray per monitor unit. At day 13 (72 hours following the last irradiation) mice were injected intravenously with NST 732 (70 mg/kg, dissolved in Tris base containing 25% cremophore RH410, pH=9). After 2 hours, tumors were excised, frozen in liquid nitrogen and submitted for histopathological assessment.
# [6] = tested on: apoptotic HeLa S3 cells; assay: Selective binding to apoptotic HeLa cells in vitro; flow-cytometric analysis; format: cell-based; conditions: culture aged 96 hours; FACS
# Experimental: HeLa S3 cells (ATCC CCL-2.2) were grown in Dulbecco's modified Eagle's medium (DMEM), supplemented with 2 mM of L-glutamine; 100 units/ml of penicillin; 100 μg/ml of streptomycin; 12.5 units/ml of nystatin and 10% of fetal calf serum (FCS). Cells were seeded at a density of 5×10^6 cells/plate, on a […] culture plates, in a volume of 10 ml, and were allowed to age by incubating the culture for 96 hours without exchange of the growth medium. As a result, a marked percentage of the cells became apoptotic. Cells were harvested using a cell scraper, separated to single cells by passage through a syringe with a 18 G needle, and re-suspended at a density of 10^6 cells/ml in PBS buffer at pH=7.4. […] The analysis shown in FIG. 10 describes the uptake of NST601 compound into the population of apoptotic cells.
# [7] = apoptotic cells (anti-Fas Ab 0.1 μg/ml, 3 hrs), 100 μM compound
# [8] = non-treated control cells, 100 μM compound
compound,measurement,setting,value
"CCCCN(C)c1cccc2c(S(=O)(=O)NCC(=O)O)cccc12 [NST703, (5-Butylmethylamino-naphtalene-1-sulfonyl)-glycine]","percent of identified early apoptotic events within the population (cells binding compound, excluding PI)",[1]; [7],75.6%
same,"percent of identified early apoptotic events within the population (cells binding compound, excluding PI)",[1]; [8],3.27%
"CN(C)c1cccc2c(S(=O)(=O)O)cccc12 [DA, dansylic acid]","percent of identified early apoptotic events within the population (cells binding compound, excluding PI)","[1]; apoptotic cells (anti-Fas Ab 0.1 μg/ml, 3 hrs), 250 μM compound",77%
same,"percent of identified early apoptotic events within the population (cells binding compound, excluding PI)","[1]; non-treated control cells, 250 μM compound",4.2%
"CCCCN(CCCC)c1cccc2c(S(=O)(=O)N[C@@H](CC(=O)O)C(=O)O)cccc12 [NST705, (5-dibutylamino-naphthalene-1-sulfonyl)-L-aspartic acid]",uptake by tumor cells undergoing cell death,[2],marked uptake
same,"uptake by viable, non-apoptotic tumor cells",[2],not observed
same,"percent of identified early apoptotic events within the population (cells binding compound, excluding PI)",[1]; [7],70.8%
same,"percent of identified early apoptotic events within the population (cells binding compound, excluding PI)",[1]; [8],3%
"CN(C)c1cccc2c(S(=O)(=O)N[C@@H](CS)C(=O)O)cccc12 [DC, dansylcysteine]","binding to normal, viable tissue",[3]; small intestine tissue of the same animal,lack of binding
same,binding to tumor cells undergoing apoptosis,[3],Extensive binding
same,staining of viable tumor cells,[3],remain unstained
same,"percent of identified early apoptotic events within the population (cells binding compound, excluding PI)",[1]; [7],76%
same,"percent of identified early apoptotic events within the population (cells binding compound, excluding PI)",[1]; [8],2.3%
CN(C)c1cccc2c(S(=O)(=O)NC(C)(CF)C(=O)O)cccc12 (stereo not drawn) [NST730],binding to cells in the infarcted (damaged) area,[4],extensive binding
same,binding to cells outside the infarcted area,[4],did not manifest significant binding
same,binding to other non-target tissues,"[3]; colon, kidney, spleen and heart",lack of significant binding
same,"binding to normal, viable tissue",[3]; muscle tissue of the same animal,lack of binding
same,binding to tumor cells undergoing apoptosis,[3],Extensive binding
same,staining of viable tumor cells,[3],remain unstained
CCC(CF)(NS(=O)(=O)c1cccc2c(N(C)C)cccc12)C(=O)O (stereo not drawn) [NST732],binding to cells in the infarcted (damaged) area,[4],extensive binding
same,binding to cells outside the infarcted area,[4],did not manifest significant binding
same,binding to tumor cells undergoing apoptosis,[5],extensive binding
"CCCCN(C)c1cccc2c(S(=O)(=O)O)cccc12 [NST601, 5-Butylmethylamino-naphtalene-1-sulfonic acid]",binding to apoptotic cells,[6],selective binding
same,staining of cells that do not undergo a process of cell death,[6],remained non-stained
